Reference: US20130323314A1, “Novel Nanoparticles of Lactoferrin Useful for Preparing a Pharmaceutical Composition Facilitating Easy Delivery of the Drug and a Process for Preparing the Same” (UNIVERSITY OF HYDERABAD, priority 2011, published 2013)
Structures can show the parent of a compound that is named as a salt. Where two headings read alike, the source gives them in different places. Marks after values point to notes of the source that are not given here.

Legend:
in vivo [1] = details: rat, iv
[2] = Pharmacokinetics and tissue distribution after oral administration; details: rat
heart = details: rat, in vivo
in vivo [3] = details: rat, im
[4] = Pharmacokinetics and tissue distribution after intravenous administration; details: rat
in vivo [5] = details: rat, sc
[6] = Pharmacokinetics and tissue distribution after intramuscular administration; details: rat
in vivo [7] = details: rat, po
[8] = Pharmacokinetics and tissue distribution after subcutaneous administration; details: rat

COc1cccc2c1C(=O)c1c(O)c3c(c(O)c1C2=O)C[C@@](O)(C(=O)CO)C[C@@H]3O[C@H]1C[C@H](N)[C@H](O)[C@H](C)O1 [Doxo, Doxorubicin hydrochloride]
Tmax (in vivo [1]): 8 h
half-life (in vivo [1]): 2.74 h
AUC ([2]; Blood): 105.24 (h) * (μg/μL)
AUMC ([2]; Blood): 1227.63 (h)^2 * (μg/μL)
Cmax ([2]; Blood): 8250 µg/mL
t½ ([2]; Blood): 3.741 h
AUC ([2]; Heart): 248.048 (h) * (μg/g)
AUMC ([2]; Heart): 3211.86 (h)^2 * (μg/g)
MRT last ([2]; Heart): 8.9708 h
Tmax ([2]; Heart): 16 h
t½ ([2]; Heart): 7.533 h
AUC ([2]; Kidney): 362.639 (h) * (μg/g)
AUMC ([2]; Kidney): 4321.31 (h)^2 * (μg/g)
t½ ([2]; Kidney): 6.47 h
AUC ([2]; Liver): 207.816 (h) * (μg/g)
AUMC ([2]; Liver): 2379.51 (h)^2 * (μg/g)
MRT last ([2]; Liver): 7.428 h
t½ ([2]; Liver): 6.099 h
AUC ([2]; Spleen): 190.928 (h) * (μg/g)
AUMC ([2]; Spleen): 2616.55 (h)^2 * (μg/g)
MRT last ([2]; Spleen): 9.2978 h
t½ ([2]; Spleen): 5.894 h
toxicity to heart (safety analysis) (heart): cardiotoxic
toxicity to heart (safety analysis) (heart; iv): cardiotoxic
toxicity to heart (safety analysis) (heart; po): cardiotoxic
toxicity to heart (safety analysis) (heart; sc): cardiotoxic
Tmax (in vivo [3]): 8 h
Cmax ([4]; Blood): 22286.7 µg/mL
t½ ([4]; Heart): 4.444 h
t½ ([4]; Kidney): 2.63 h
t½ ([4]; Liver): 3.432 h
t½ ([4]; Spleen): 3.833 h
Tmax (in vivo [5]): 8 h
AUC ([6]; Blood): 185.4 (h) * (μg/μL)
AUMC ([6]; Blood): 1581.8 (h)^2 * (μg/μL)
Cmax ([6]; Blood): 11032 µg/mL
MRT last ([6]; Blood): 8.5317 h
t½ ([6]; Blood): 4.466 h
AUC ([6]; Heart): 510.54 (h) * (μg/g)
AUMC ([6]; Heart): 12046 (h)^2 * (μg/g)
MRT last ([6]; Heart): 23.595 h
t½ ([6]; Heart): 13.27 h
AUC ([6]; Kidney): 2580.5 (h) * (μg/g)
AUMC ([6]; Kidney): 26548 (h)^2 * (μg/g)
MRT last ([6]; Kidney): 10.288 h
t½ ([6]; Kidney): 2.0438 h
AUC ([6]; Liver): 751.01 (h) * (μg/g)
AUMC ([6]; Liver): 10278 (h)^2 * (μg/g)
MRT last ([6]; Liver): 13.685 h
t½ ([6]; Liver): 4.9231 h
AUC ([6]; Spleen): 899.9 (h) * (μg/g)
AUMC ([6]; Spleen): 19234 (h)^2 * (μg/g)
MRT last ([6]; Spleen): 21.374 h
t½ ([6]; Spleen): 13.602 h
Cmax (in vivo [7]; heart): 17200 ng/g
MRT last (in vivo [7]; in vivo): 8.21 h
Tmax (in vivo [7]; in vivo): 8 h
Cmax (in vivo [7]; kidney): 32900 ng/g
Cmax (in vivo [7]; liver): 17400 ng/g
Cmax (in vivo [7]; spleen): 11100 ng/g
AUC ([8]; Blood): 167.94 (h) * (μg/μL)
AUMC ([8]; Blood): 1745.8 (h)^2 * (μg/μL)
Cmax ([8]; Blood): 12855 µg/mL
MRT last ([8]; Blood): 10.394 h
t½ ([8]; Blood): 7.0001 h
AUC ([8]; Heart): 467.46 (h) * (μg/μL)
AUMC ([8]; Heart): 13515 (h)^2 * (μg/μL)
Cmax ([8]; Heart): 18198 µg/mL
MRT last ([8]; Heart): 28.912 h
t½ ([8]; Heart): 18.662 h
AUC ([8]; Kidney): 2249.1 (h) * (μg/g)
AUMC ([8]; Kidney): 19205 (h)^2 * (μg/g)
Cmax ([8]; Kidney): 200.93 h
MRT last ([8]; Kidney): 8.5383 h
t½ ([8]; Kidney): 3.888 h
AUC ([8]; Liver): 1025 (h) * (μg/μL)
AUMC ([8]; Liver): 10140 (h)^2 * (μg/μL)
Cmax ([8]; Liver): 71123 µg/mL
MRT last ([8]; Liver): 9.8923 h
t½ ([8]; Liver): 5.9991 h
AUC ([8]; Spleen): 553.3 (h) * (μg/g)
AUMC ([8]; Spleen): 7927.3 (h)^2 * (μg/g)
Cmax ([8]; Spleen): 34.747 h
MRT last ([8]; Spleen): 14.327 h
t½ ([8]; Spleen): 5.3088 h
